# Measured values reported in US20240209028A1, “CNP COMPOUNDS” (priority 2022, published 2024).
# Starred links: 1 amine or outer side, 2 acyl side, 3 side chain; linkers in the order of their positions; H or OH if unused. Positions of bridges follow the written chain, without caps; N, C: chain ends. Residues, ends and D or L forms follow the SMILES beside them. *: point of attachment. C18 diacid = O=C(O)CCCCCCCCCCCCCCCCC(=O)*; γGlu = O=C(O)[C@H](CCC(=O)[*:2])N[*:1]; AEEA = NCCOCCOCC(=O)O
# Target: T1, human natriuretic peptide receptor 2 (hNPR2) (Homo sapiens, UniProt P20594)
# T1 construct: expressed in transfected cells; host or cells: HEK293 (ATCC CRL-1573), clone 35, co-transfected with pGloSensor-42F
# T1 sequence (P20594 23-1047): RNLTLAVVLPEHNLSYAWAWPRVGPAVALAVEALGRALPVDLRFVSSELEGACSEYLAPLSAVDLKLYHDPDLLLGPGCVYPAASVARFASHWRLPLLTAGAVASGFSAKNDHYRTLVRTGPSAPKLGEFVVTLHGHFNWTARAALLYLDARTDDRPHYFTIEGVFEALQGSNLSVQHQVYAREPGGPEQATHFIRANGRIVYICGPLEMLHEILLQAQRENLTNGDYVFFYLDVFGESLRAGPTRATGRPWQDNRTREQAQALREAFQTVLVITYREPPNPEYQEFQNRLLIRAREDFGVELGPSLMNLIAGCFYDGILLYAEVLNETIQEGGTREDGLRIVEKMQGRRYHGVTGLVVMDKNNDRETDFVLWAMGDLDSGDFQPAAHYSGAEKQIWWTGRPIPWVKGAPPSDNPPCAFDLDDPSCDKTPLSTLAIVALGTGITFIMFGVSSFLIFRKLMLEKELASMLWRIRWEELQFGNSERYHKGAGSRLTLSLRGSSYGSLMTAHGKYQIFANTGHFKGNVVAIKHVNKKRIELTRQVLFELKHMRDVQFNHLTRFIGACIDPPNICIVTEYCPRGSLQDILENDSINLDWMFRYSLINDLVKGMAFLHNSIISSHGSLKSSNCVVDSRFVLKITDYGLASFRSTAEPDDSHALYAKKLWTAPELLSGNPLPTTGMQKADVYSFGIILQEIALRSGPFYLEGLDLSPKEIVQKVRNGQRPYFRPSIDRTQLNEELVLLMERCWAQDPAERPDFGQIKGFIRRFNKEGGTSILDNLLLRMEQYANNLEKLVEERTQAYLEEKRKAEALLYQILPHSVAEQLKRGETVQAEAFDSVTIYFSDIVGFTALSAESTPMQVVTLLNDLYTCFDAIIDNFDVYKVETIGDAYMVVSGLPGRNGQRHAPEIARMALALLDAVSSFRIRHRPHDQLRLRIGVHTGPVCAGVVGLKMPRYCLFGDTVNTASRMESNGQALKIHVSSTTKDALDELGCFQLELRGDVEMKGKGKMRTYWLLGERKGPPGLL
# Experiment: In vitro hNPR2 activity assay (cGMP GloSensor reporter, HEK293)
# Type: cell-based
# Conditions: potency relative to CNP22 (0065)
# Summary of the method: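 Potency is the EC50 from a four-parameter logistic fit, also expressed relative to the in-plate CNP22 control (×100), with at least two replicates. Compounds (ten concentrations, […], HSA-free diluent with 1% OVA, 0.01% Tween20) were incubated 30 min at 37 °C on HEK293 cells co-expressing hNPR2 and a GloSensor cGMP luciferase. Luminescence detected with Bright-Glo.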
row,Structure (SMILES),hNPR2 0% HSA. [EC50% rel CNP] [%]
1,CC[C@H](C)[C@@H]1NC(=O)[C@H](CCCNC(=N)N)NC(=O)[C@H](CC(=O)O)NC(=O)[C@H](CC(C)C)NC(=O)[C@@H]2CCCN2C(=O)[C@H](CC(C)C)NC(=O)CNC(=O)[C@H](Cc2ccccc2)NC(=O)[C@@H](NC(=O)CNC(=O)[C@H](CCC(N)=O)NC(=O)[C@H](CO)NC(=O)[C@H](CC(C)C)NC(=O)CNC(=O)[C@H](CCCCN)NC(=O)[C@H](CCCCN)NC(=O)[C@H](CCC(=O)O)NC(=O)[C@H](C)NC(=O)CNC(=O)[C@H](CCC(=O)O)NC(=O)[C@H](Cc2ccc(O)cc2)NC(=O)COCCOCCNC(=O)COCCOCCNC(=O)CC[C@H](NC(=O)CCCCCCCCCCCCCCCCC(=O)O)C(=O)O)CSSC[C@@H](C(=O)O)NC(=O)CNC(=O)[C@H](CC(C)C)NC(=O)CNC(=O)[C@H](CO)NC(=O)[C@H](CC(C)C)NC(=O)[C@H](CO)NC(=O)CNC1=O [compound 1274] ({C18 diacid-γGlu-AEEA-AEEA}-YEGAEKKGLSQGCFGLPLDRIGSLSGLGC-OH; disulfide 13-29),13.2
2,CC[C@H](C)[C@@H]1NC(=O)[C@H](CCCNC(=N)N)NC(=O)[C@H](CC(=O)O)NC(=O)[C@H](CC(C)C)NC(=O)[C@@H]2CCCN2C(=O)[C@H](CC(C)C)NC(=O)CNC(=O)[C@H](Cc2ccccc2)NC(=O)[C@@H](NC(=O)CNC(=O)[C@H](CO)NC(=O)[C@H](CO)NC(=O)[C@H](CC(C)C)NC(=O)CNC(=O)[C@H](CCCCN)NC(=O)[C@H](CCC(=O)O)NC(=O)[C@H](CCC(N)=O)NC(=O)[C@H](C)NC(=O)CNC(=O)[C@H](CCC(=O)O)NC(=O)COCCOCCNC(=O)COCCOCCNC(=O)CC[C@H](NC(=O)CCCCCCCCCCCCCCCCC(=O)O)C(=O)O)CSSC[C@@H](C(=O)O)NC(=O)CNC(=O)[C@H](CC(C)C)NC(=O)CNC(=O)[C@H](CO)NC(=O)[C@H](CC(C)C)NC(=O)[C@H](CO)NC(=O)CNC1=O [compound 1287] ({C18 diacid-γGlu-AEEA-AEEA}-EGAQEKGLSSGCFGLPLDRIGSLSGLGC-OH; disulfide 12-28),2.9
3,CC[C@H](C)[C@@H]1NC(=O)[C@H](CCCNC(=N)N)NC(=O)[C@H](CC(=O)O)NC(=O)[C@H](CC(C)C)NC(=O)[C@@H]2CCCN2C(=O)[C@H](CC(C)C)NC(=O)CNC(=O)[C@H](Cc2ccccc2)NC(=O)[C@@H](NC(=O)CNC(=O)[C@H](CO)NC(=O)[C@H](CO)NC(=O)[C@H](CC(C)C)NC(=O)CNC(=O)[C@H](CCC(=O)O)NC(=O)[C@H](CCCCN)NC(=O)[C@H](CCC(N)=O)NC(=O)[C@H](C)NC(=O)CNC(=O)[C@H](CCC(=O)O)NC(=O)COCCOCCNC(=O)COCCOCCNC(=O)CC[C@H](NC(=O)CCCCCCCCCCCCCCCCC(=O)O)C(=O)O)CSSC[C@@H](C(=O)O)NC(=O)CNC(=O)[C@H](CC(C)C)NC(=O)CNC(=O)[C@H](CO)NC(=O)[C@H](CC(C)C)NC(=O)[C@H](CO)NC(=O)CNC1=O [compound 1288] ({C18 diacid-γGlu-AEEA-AEEA}-EGAQKEGLSSGCFGLPLDRIGSLSGLGC-OH; disulfide 12-28),3.0
4,CC[C@H](C)[C@@H]1NC(=O)[C@H](CCCNC(=N)N)NC(=O)[C@H](CC(=O)O)NC(=O)[C@H](CC(C)C)NC(=O)[C@@H]2CCCN2C(=O)[C@H](CC(C)C)NC(=O)CNC(=O)[C@H](Cc2ccccc2)NC(=O)[C@@H](NC(=O)CNC(=O)[C@H](CO)NC(=O)[C@H](CO)NC(=O)[C@H](CC(C)C)NC(=O)CNC(=O)[C@H](CCC(=O)O)NC(=O)[C@H](CCCCN)NC(=O)[C@H](CCC(N)=O)NC(=O)[C@H](C)NC(=O)CNC(=O)[C@H](CCC(=O)O)NC(=O)[C@H](Cc2ccc(O)cc2)NC(=O)COCCOCCNC(=O)COCCOCCNC(=O)CC[C@H](NC(=O)CCCCCCCCCCCCCCCCC(=O)O)C(=O)O)CSSC[C@@H](C(=O)O)NC(=O)CNC(=O)[C@H](CC(C)C)NC(=O)CNC(=O)[C@H](CO)NC(=O)[C@H](CC(C)C)NC(=O)[C@H](CO)NC(=O)CNC1=O [compound 1289] ({C18 diacid-γGlu-AEEA-AEEA}-YEGAQKEGLSSGCFGLPLDRIGSLSGLGC-OH; disulfide 13-29),2.9
5,CC[C@H](C)[C@@H]1NC(=O)[C@H](CCCNC(=N)N)NC(=O)[C@H](CC(=O)O)NC(=O)[C@H](CC(C)C)NC(=O)[C@@H]2CCCN2C(=O)[C@H](CC(C)C)NC(=O)CNC(=O)[C@H](Cc2ccccc2)NC(=O)[C@@H](NC(=O)CNC(=O)[C@H](CO)NC(=O)[C@H](CO)NC(=O)[C@H](CC(C)C)NC(=O)CNC(=O)[C@H](CCCCN)NC(=O)[C@H](CCCCN)NC(=O)[C@H](CCC(N)=O)NC(=O)[C@H](C)NC(=O)CNC(=O)[C@H](CCC(=O)O)NC(=O)[C@H](Cc2ccc(O)cc2)NC(=O)COCCOCCNC(=O)COCCOCCNC(=O)CC[C@H](NC(=O)CC[C@H](NC(=O)CCCCCCCCCCCCCCCCC(=O)O)C(=O)O)C(=O)O)CSSC[C@@H](C(=O)O)NC(=O)CNC(=O)[C@H](CC(C)C)NC(=O)CNC(=O)[C@H](CO)NC(=O)[C@H](CC(C)C)NC(=O)[C@H](CO)NC(=O)CNC1=O [compound 1290] ({C18 diacid-γGlu-γGlu-AEEA-AEEA}-YEGAQKKGLSSGCFGLPLDRIGSLSGLGC-OH; disulfide 13-29),7.0
6,CC[C@H](C)[C@@H]1NC(=O)[C@H](CCCNC(=N)N)NC(=O)[C@H](CC(=O)O)NC(=O)[C@H](CC(C)C)NC(=O)[C@@H]2CCCN2C(=O)[C@H](CC(C)C)NC(=O)CNC(=O)[C@H](Cc2ccccc2)NC(=O)[C@@H](NC(=O)CNC(=O)[C@H](CO)NC(=O)[C@H](CO)NC(=O)[C@H](CC(C)C)NC(=O)CNC(=O)[C@@H](NC(=O)[C@H](CCCCN)NC(=O)[C@H](CCC(N)=O)NC(=O)[C@H](C)NC(=O)CNC(=O)[C@H](Cc2c[nH]cn2)NC(=O)[C@H](Cc2ccc(O)cc2)NC(=O)COCCOCCNC(=O)COCCOCCNC(=O)CC[C@H](NC(=O)CCCCCCCCCCCCCCCCC(=O)O)C(=O)O)[C@@H](C)O)CSSC[C@@H](C(=O)O)NC(=O)CNC(=O)[C@H](CC(C)C)NC(=O)CNC(=O)[C@H](CO)NC(=O)[C@H](CC(C)C)NC(=O)[C@H](CO)NC(=O)CNC1=O [compound 1302] ({C18 diacid-γGlu-AEEA-AEEA}-YHGAQKTGLSSGCFGLPLDRIGSLSGLGC-OH; disulfide 13-29),26.5
7,CC[C@H](C)[C@@H]1NC(=O)[C@H](CCCNC(=N)N)NC(=O)[C@H](CC(=O)O)NC(=O)[C@H](CC(C)C)NC(=O)[C@@H]2CCCN2C(=O)[C@H](CC(C)C)NC(=O)CNC(=O)[C@H](Cc2ccccc2)NC(=O)[C@@H](NC(=O)CNC(=O)[C@H](CO)NC(=O)[C@H](CO)NC(=O)[C@H](CC(C)C)NC(=O)CNC(=O)[C@@H](NC(=O)[C@H](Cc2c[nH]cn2)NC(=O)[C@H](CCC(N)=O)NC(=O)[C@H](C)NC(=O)CNC(=O)[C@H](CCCCN)NC(=O)[C@H](Cc2ccc(O)cc2)NC(=O)COCCOCCNC(=O)COCCOCCNC(=O)CC[C@H](NC(=O)CCCCCCCCCCCCCCCCC(=O)O)C(=O)O)[C@@H](C)O)CSSC[C@@H](C(=O)O)NC(=O)CNC(=O)[C@H](CC(C)C)NC(=O)CNC(=O)[C@H](CO)NC(=O)[C@H](CC(C)C)NC(=O)[C@H](CO)NC(=O)CNC1=O [compound 1305] ({C18 diacid-γGlu-AEEA-AEEA}-YKGAQHTGLSSGCFGLPLDRIGSLSGLGC-OH; disulfide 13-29),8.7
8,CC[C@H](C)[C@@H]1NC(=O)[C@H](CCCNC(=N)N)NC(=O)[C@H](CC(=O)O)NC(=O)[C@H](CC(C)C)NC(=O)[C@@H]2CCCN2C(=O)[C@H](CC(C)C)NC(=O)CNC(=O)[C@H](Cc2ccccc2)NC(=O)[C@@H](NC(=O)CNC(=O)[C@H](CCCCN)NC(=O)[C@H](CO)NC(=O)[C@H](CC(C)C)NC(=O)CNC(=O)[C@H](CCCCN)NC(=O)[C@H](CCCCN)NC(=O)[C@H](CCC(N)=O)NC(=O)[C@H](C)NC(=O)CNC(=O)[C@H](Cc2c[nH]cn2)NC(=O)[C@H](CCC(=O)O)NC(=O)COCCOCCNC(=O)COCCOCCNC(=O)CC[C@H](NC(=O)CCCCCCCCCCCCCCCCC(=O)O)C(=O)O)CSSC[C@@H](C(=O)O)NC(=O)CNC(=O)[C@H](CC(C)C)NC(=O)CNC(=O)[C@H](CO)NC(=O)[C@H](CC(C)C)NC(=O)[C@H](CO)NC(=O)CNC1=O [compound 1309] ({C18 diacid-γGlu-AEEA-AEEA}-EHGAQKKGLSKGCFGLPLDRIGSLSGLGC-OH; disulfide 13-29),33.3
